Experimental data: publication PMC4526917 (Journal of Experimental Botany, 2015)
Peptide text beside a SMILES is read from it.

Assays:
maize pollen tubes = assay: Pollen tube burst assay; type: cell-based, Zea mays; settings: for maize pollen tube burst: mean ±SD
Procedure: The assay was applied as described ([Woriedh et al., 2013]). Briefly, freshly collected pollen was immediately distributed onto Petri dishes containing droplets of 10 µL PGM at different pH values. Pollen tubes started to burst or to grow after about 10min. Pollen tubes were subjected to further studies only if germination rates exceeded 80%. After optimization, PGM at pH 5 was applied to all pollen tube assays. A 10 µL solution of the above peptides or acetonitrile as a negative control was added to each droplet of germinated pollen using a Cell-TramH Air pump (Eppendorf) and a glass micropipette. During this assay, droplets were observed using an Eclipse TE2000 inverted microscope (Nikon) equipped with a 1.4 Megapixel digital AxioCam MRm camera (black and white) and AxioVision digital image processing software (Release 4.8).

F. graminearum conidia = type: cell-based, Fusarium graminearum; settings: for fungal germination in Fusarium / conidia that did not germinate at all: 90 µM peptide; for fungal germination in Fusarium: 24 hours in PGM, absorbance at 595 nm, germination above 60% taken as threshold; for conidia that did not germinate at all: microscopy; for concentration giving complete suppression of conidia germination: PGM, 24h
[1] = tested on: F. graminearum conidia and mycelia; type: cell-based, Fusarium graminearum; settings: 90 µM peptide, after 6h; microscopy
[2] = tested on: F. graminearum conidia and mycelia; type: cell-based, Fusarium graminearum; settings: NBT staining of superoxide; 60 µM peptide (Fig. 6)
U. maydis spores [3] = type: cell-based, Ustilago maydis
U. maydis spores [4] = settings: for inhibition of germination of Ustilago spores: 24 h, 90 μM
U. maydis spores [5] = type: cell-based, Ustilago maydis; remark: listed apart in the source
maize pollen tube = tested on: maize pollen tube; set-up: method as in Amien et al., 2010; settings: ref Amien et al., 2010; cited from earlier work

Compound	maize pollen tube burst (maize pollen tubes; peptide concentration not stated at this place (100nM, 250nM and 500nM applied), PGM pH 5, 5min after application) [%]	fungal germination in Fusarium (F. graminearum conidia) [%]	conidia that did not germinate at all (F. graminearum conidia)	concentration giving complete suppression of conidia germination (F. graminearum conidia) [µM]	effect on developed F. graminearum mycelia (24 hpi) [1]	ROS production in F. graminearum conidia and mycelia [2]	ROS production in U. maydis spores (U. maydis spores [3])	concentration giving complete suppression of spore germination (U. maydis spores [4]) [µM]	germination of Ustilago spores (U. maydis spores [4]) [%]	spores that did not germinate at all (U. maydis spores [4])	inhibition of germination of Ustilago spores (U. maydis spores [4]) [%]	maize pollen tube burst (maize pollen tubes; 500nM peptide in PGM pH 5, measured 5min after application, P < 0.001) [%]	time after application until pollen tubes started to burst (maize pollen tubes; PGM pH 5, in words)	effect on U. maydis spores (U. maydis spores [5])	effect on maize pollen tube growth behaviour (maize pollen tube)
CC(C)C[C@H](NC(=O)[C@H](CS)NC(=O)[C@H](CCCNC(=N)N)NC(=O)CNC(=O)CNC(=O)[C@@H](NC(=O)[C@H](Cc1ccc(O)cc1)NC(=O)CNC(=O)[C@H](CCCCN)NC(=O)CNC(=O)[C@H](CCC(=O)O)NC(=O)[C@H](C)NC(=O)[C@H](CCCNC(=N)N)NC(=O)[C@H](CS)NC(=O)CN)[C@@H](C)O)C(=O)O [ES-c] (H-GCRAEGKGYTGGRCL-OH; N-terminus and C-terminus assumed)	29.3±4.2	19.1±3.8	Approximately 80%	120	breaking/bursting of cell walls and release of vacuoles	strongly produced ROS	ROS production was also detected	120	19.1±3.8	Approximately 80%	80.9±1.0				
CC[C@H](C)[C@H](NC(=O)CNC(=O)[C@H](CC(=O)O)NC(=O)[C@H](CC(C)C)NC(=O)[C@@H](NC(=O)[C@@H](NC(=O)[C@@H]1CCCN1C(=O)[C@H](CO)NC(=O)[C@@H](NC(=O)[C@H](CC(C)C)NC(=O)[C@H](CS)NC(=O)[C@@H](N)CCCNC(=N)N)[C@@H](C)CC)[C@@H](C)CC)[C@@H](C)O)C(=O)N[C@@H](CC(C)C)C(=O)N[C@@H](CS)C(=O)N[C@@H](Cc1ccc(O)cc1)C(=O)O [ES-d] (H-RCLISPITLDGILCY-OH; N-terminus and C-terminus assumed)		20.6±2.1	Approximately 80%	120	breaking/bursting of cell walls and release of vacuoles	strongly produced ROS	ROS production was also detected	120	20.6±2.1	Approximately 80%	78.7±1.0	82.5±5.2	within a few seconds	burst of swelling spores and excretion of vacuoles and cell components	
AFP2: anti-fungal protein AFP2 from radish (Raphanus sativus) (QKLCQRPSGTWSGVCGNNNACKNQCIRLEKARHGSCNYVFPAHKCICYFPC; UniProt P30230 30-80, looked up)															did not affect
